The source of these data is US7524510B2, “Alkyl-glycoside enhanced vaccination” (The UAB Research Foundation, priority 2005, dated 2009).

Test [1] relates to mice. The test is described as follows: Enhancement of potency of E. coli-vectored epicutaneous vaccine, co-administered without ablation of the stratum corneum. It is filed as in vivo, mouse. The conditions noted are these: topical E. coli vector expressing tetC mixed with TDM, skin not ablated by brushing, sera 2 months postimmunization. On the procedure:
Preliminary tests of the ability of tetradecyl-β-D maltoside (purchased from Anatrace) to enhance the potency of an E. coli-vectored epicutaneous vaccine when co-administered without ablation of the stratum corneum were conducted. Specifically, mice were immunized by topical application of an E. coli vector expressing tetC mixed with TDM at the indicated concentration and sera were analyzed 2 months postimmunization.

Test [2] has as its system mice. The test can be described thus: Enhancement of potency of adenovirus-vectored epicutaneous vaccine, co-administered without ablation of the stratum corneum. The class given is in vivo, mouse. The conditions noted are these: topical adenovirus vector expressing tetC mixed with TDM, no ablation of stratum corneum, sera 1 month postimmunization. On the procedure:
Tests of the ability of TDM to enhance the potency of an adenovirus-vectored epicutaneous vaccine when co-administered without ablation of the stratum comeum were also conducted. Here, mice were immunized by topical application of an adenovirus vector expressing tetC mixed with TDM at the indicated concentration, and sera were analyzed 1 month postimmunization.

The subject of a further test is Mouse skin. The test is described as follows: Permeabilization of stratum corneum, electron microscopy of cutaneous architecture. The class given is in vivo. The settings on record: mouse skin ablated by mechanical brushing, topical TDM incubated 15 min with naked skin. Here is the method:
Mouse skin was ablated by mechanical brushing prior to topical application of TDM, followed by incubation of TDM at the indicated concentration with naked skin for 15 min, followed by examination of the cutaneous architecture under an electron microscope.

As for `CCCCCCCCCCCCCCO[C@@H]1O[C@H](CO)[C@@H](O[C@H]2O[C@H](CO)[C@@H](O)[C@H](O)[C@H]2O)[C@H](O)[C@H]1O` [TDM, tetradecyl-β-D-maltoside], in the test with mice [1], the “enhancement of the potency of an E. coli-vectored epicutaneous vaccine (sera analyzed)” value is on record as “No increase over the control”. Moreover, the “enhancement of the potency of an adenovirus-vectored epicutaneous vaccine (sera analyzed)” value in the test on mice [2] was “No significant increase over the control”. The “effect on stratum corneum (cutaneous architecture under electron microscope)” value with Mouse skin is “permeablization of the stratum comeum”.
